Assay results: PMC9775409, “Identification, Screening, and Comprehensive Evaluation of Novel DPP-IV Inhibitory Peptides from the Tilapia Skin Gelatin Hydrolysate Produced Using Ginger Protease” (Biomolecules, 2022)
Like-named read-outs stand apart in the source and are kept apart here. Non-standard residues stand in square brackets, D forms with d. Residues, ends and D or L forms follow the SMILES beside them. No end group written: not given here. Hyp = O=C(O)[C@@H]1C[C@@H](O)CN1

Experiments:
[1] = in vivo, po
[2] = tested on: DPP-IV; set-up: method as in PMID 24650211; settings: in words; cited from earlier work
[3] = Oral administration in rats, LC-MS/MS identification of peptides in plasma; settings: for Identification in rat plasma, 0.5 h: 0.5 h after oral administration of GPXGPPGPGP; for Identification in rat plasma, 0.5 h / Identification in rat plasma, 1 h: blood from abdominal aorta, ethanol protein precipitation; for Identification in rat plasma, 1 h: 1 h after oral administration of GPXGPPGPGP; for Identified in plasma at 0.5 h: rat plasma 0.5 h after oral administration of GPXGPPGPGP; for Identified in plasma at 0.5 h / Identified in plasma at 1 h: in words; for Identified in plasma at 1 h: rat plasma 1 h after oral administration of GPXGPPGPGP
[4] = tested on: Caco-2 cell monolayer; settings: cited from earlier work

Identification in rat plasma, 0.5 h [1] | Identification in rat plasma, 1 h [1] | Identified in plasma at 1 h ([1]; rat) | Identification in rat plasma, 0.5 h [3] | Identification in rat plasma, 1 h [3] | Identified in plasma at 0.5 h [3] | Identified in plasma at 1 h [3] | Molecule | Inhibitory effect against DPP-IV [2] | Passage through the Caco-2 cell monolayer [4]
+ | − | not at 1 h |  |  |  |  | NCC(=O)N1CCC[C@H]1C(=O)N1C[C@H](O)C[C@H]1C(=O)O [GPX, Gly-Pro-Hyp] (H-Gly-Pro-[Hyp]-OH) | inhibitory effect against DPP-IV | 
 |  |  | + | − | identified in plasma at 0.5 h | not at 1 h | O=C(O)[C@@H]1C[C@@H](O)CN1C(=O)[C@@H]1CCCN1 [PX, Pro-Hyp] (H-Pro-[Hyp]-OH) | not inhibitory against DPP-IV | 
 |  |  | + | − | identified in plasma at 0.5 h | not at 1 h | O=C(O)CNC(=O)[C@@H]1C[C@@H](O)CN1C(=O)[C@@H]1CCCN1 [PXG, Pro-Hyp-Gly] (H-Pro-[Hyp]-Gly-OH) |  | 
 |  |  |  |  |  |  | GA[Hyp]GL[Hyp]GP |  | pass through the Caco-2 cell monolayer by paracellular diffusion
